Measurements as given in article PMC8840040, “Pharmacokinetic Characterization of the DDAH1 Inhibitors ZST316 and ZST152 in Mice Using a HPLC-MS/MS Method” (Molecules, 2022).
Read-outs that look alike come from different tables or passages of the source.

Assays:
[1] = Tolerability of chronic intraperitoneal treatment (clinical signs, body weight); assay type: in vivo; conditions: i.p. 30 mg/Kg/day for three weeks
Experimental: (§1) In this study, 18 mice received a single dose and were sampled within 24 h, and the other 18 were treated every day for three weeks (qdx21) and sampled on day 21. Mice were monitored daily for clinical signs of toxicity and distress, and body weight was measured at least twice a week. Blood samples were collected after both treatment regimens at 15 and 30 min, and 1, 3, 8, and 24 h post dose. Three mice were analyzed for each time point. After the animals were anesthetized with isoflurane, the blood was drained from the retro-orbital plexus into heparinized tubes, and then centrifuged for 10 min at 4000 g at 4 °C to separate plasma. A 24-h urine fraction was collected in three mice for each drug and route of administration. Plasma and urine samples were stored at −20 °C until analysis by HPLC-MS/MS.

[2] = Plasma pharmacokinetics and urinary elimination after acute and chronic intraperitoneal administration; assay type: in vivo, FVB mice
Experimental: as §1
Reversed-phase chromatography was performed using a series 200 HPLC system (Perkin Elmer, Waltham, MA, USA) under gradient conditions with separation on a HILIC column, 3 µm, 100 A, 2.1 × 150 mm (Waters, Milford, MA, USA), coupled with a 3 µm, 3.9 × 5.0 mm guard column of the same material at the flow rate of 0.2 mL/min. Gradient features: 10% mobile phase (MP) A (NH4HCO2 10 mM, 10% CH3CN, 0.1% HCOOH) and 90% MP B (CH3CN, 0.1% HCOOH) as the initial constant condition; then to 90% MP A in 6 min and the constant condition for 1.5 min. Return to the start condition in 0.5 min and conditioning for 5.5 min. Total run time: 13.5 min. Mass spectrometric detection was performed using an API 4000 triple quadrupole mass spectrometer (SCIEX, Framingham, MA, USA) supplied with a Turbo Ion Spray source set at 350 °C and −4200 V, analyzing biological samples with electrospray ionization (ESI) operating in negative ion mode. Purified air was used as nebulizer gas (Gas 1) and heater gas (Gas 2) and N2 was used as curtain gas and collision activated dissociation gas. They were set to 40, 50, 20, and 4 instrument units (psi), respectively. The declustering potential (DP) was set at −119 V and the collision exit potential (CXP) at –10 V. All parameters of the source were defined by direct infusion of ZST316 and ZST152 1 µg/mL in mobile phase B. The final quantification was carried out in Selected Reaction Monitoring (SRM) with the following transitions: m/z 307.9 → 208.0 (collision energy of −29.5 eV) for ZST316 and m/z 271.9 → 170.9 (collision energy −24.7 eV) for ZST152 (Figure 2 and Figure 3). Data were processed with the software package Analyst 1.6.2 (AB SCIEX).
Pharmacokinetic parameters and descriptive statistics (means, standard deviations, percentages) were calculated using Phoenix WinNonlin V 8.3 (Certara Inc., Princeton, NJ, USA).

[3] = FVB, mouse, plasma, ip, i.p. 30 mg/Kg, acute
[4] = FVB, mouse, plasma, ip, i.p. 30 mg/Kg/day, chronic

## COCCNC(=N)NCCC[C@H](N)C(=O)NS(C)(=O)=O [ZST316]
[1]
  tolerability of chronic treatment: well tolerated
[1]; 30 mg/kg/day
  body weight during treatment vs. untreated animals: no changes in body weight vs. untreated animals
  clinical signs of toxicity or distress: no clinical signs of toxicity or distress were noticed
[2]; FVB, mouse, plasma, ip, 30 mg/kg, i.p. 30 mg/Kg, acute, read-out: AUC 0-8h
  AUC(0-t): 14300 ng·h/mL
[2]; FVB, mouse, plasma, ip, 30 mg/kg, i.p. 30 mg/Kg, acute, read-out: AUC 0-last
  AUC(0-t): 14400 ng·h/mL
[2]; FVB, mouse, plasma, ip, 30 mg/kg/day, i.p. 30 mg/Kg/day, chronic, read-out: AUC 0-8h
  AUC(0-t): 12300 ng·h/mL
[2]; FVB, mouse, plasma, ip, 30 mg/kg/day, i.p. 30 mg/Kg/day, chronic, read-out: AUC 0-last
  AUC(0-t): 12600 ng·h/mL
[2]; [3]
  AUC(0-inf): 14500 ng·h/mL
  Tmax: 0.25 h
  half-life: 5.7 h
[2]; FVB, mouse, plasma, ip, i.p. 30 mg/Kg, acute (single dose)
  Cmax: 40200 ng/mL
[2]; FVB, mouse, plasma, ip, i.p. 30 mg/Kg, acute, read-out: F % (bioavailability)
  bioavailability: 67%
[2]; FVB, mouse, plasma, ip, i.p. 30 mg/Kg/day for three weeks, chronic (day 21)
  Cmax at 21 days: 33600 ng/mL
[2]; [4]
  AUC(0-inf): 12700 ng·h/mL
  Tmax: 0.25 h
  half-life: 8.4 h
[2]; FVB, mouse, plasma, ip, i.p. 30 mg/Kg/day, chronic, read-out: F % (bioavailability)
  bioavailability at 21 days: 59%
[2]; i.p. 30 mg/Kg, acute
  24-h urinary excretion (% of dose): 56.1 % of dose
[2]; i.p. 30 mg/Kg, acute/chronic not distinguished
  urinary excretion, % of the administered dose: 55%
[2]; i.p. 30 mg/Kg/day for three weeks, 30 mg/kg/day
  accumulation after chronic treatment: no accumulation was observed
[2]; i.p. 30 mg/Kg/day, chronic
  24-h urinary excretion (% of dose): 54.1 % of dose
